Results as given in ChEMBL document CHEMBL1201862, “PubChem BioAssay data set” (2004).
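Dose response: 5 concentrations. Exposure: 48 h. Format: 96-well plates. Endpoint: linear interpolation; highest concentration if not reached. GI50: concentration for 50% inhibition of growth.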 The source made the active and inactive calls. Cut-off read from the data, not from the text of the source: active = GI50 up to about 1.1 µM and inactive = higher.

Key:
Experiment in all cases: NCI-60 cell line screen, 48 h
[1] = test system: SF-295
[2] = test system: BT-549
[3] = test system: MOLT-4
[4] = test system: RPMI-8226
[5] = test system: LOX IMVI
[6] = test system: U-251
[7] = test system: SW-620
[8] = test system: OVCAR-4
[9] = test system: SK-MEL-5
[10] = test system: UO-31
[11] = test system: MCF7
[12] = test system: UACC-62
[13] = test system: IGROV-1
[14] = test system: Hs-578T
[15] = test system: NCI-H460
[16] = test system: CAKI-1
[17] = test system: COLO 205
[18] = test system: HL-60
[19] = test system: HCT-116
[20] = test system: M14
[21] = test system: HT-29
[22] = test system: OVCAR-3
[23] = test system: 786-0
[24] = test system: MDA-MB-435
[25] = test system: CCRF-CEM
[26] = test system: HCT-15
[27] = test system: SF-268
[28] = test system: SK-MEL-2
[29] = test system: SK-MEL-28
[30] = test system: NCI/ADR-RES
[31] = test system: T47D
[32] = test system: UACC-257
[33] = test system: SF-539
[34] = test system: RXF 393
[35] = test system: SNB-75
[36] = test system: SR
[37] = test system: TK-10
[38] = test system: OVCAR-8
[39] = test system: HOP-62
[40] = test system: K562
[41] = test system: NCI-H23
[42] = test system: SN12C
[43] = test system: NCI-H522
[44] = test system: KM12
[45] = test system: A498
[46] = test system: SK-OV-3
[47] = test system: MDA-MB-231
[48] = test system: ACHN
[49] = test system: PC-3
[50] = test system: SNB-19
[51] = test system: HCC 2998
[52] = test system: MDA-N
[53] = test system: Malme-3M
[54] = test system: NCI-H226
[55] = test system: DU-145
[56] = test system: EKVX
[57] = test system: HOP-92
[58] = test system: A549
[59] = test system: OVCAR-5

Measured: GI50

C=CC[C@H]1[C@H](O[Si](C)(C)C(C)(C)C)C=CC(=O)[C@@H]1CC(=O)OCC
13.5 µM: [26]
inactive: [1] 13.5 µM | [2] 16.5 µM | [3] 22 µM | [4] 2.31 µM | [5] 17.5 µM | [6] 14.6 µM | [7] 15.5 µM | [8] 11.8 µM | [9] 11 µM | [10] 12.9 µM | [11] 11.5 µM | [12] 11.9 µM | [13] 16.4 µM | [14] 19 µM | [15] 14 µM | [16] 12.4 µM | [17] 15.3 µM | [18] 8.04 µM | [19] 11.4 µM | [20] 12.7 µM | [21] 9.06 µM | [22] 13.1 µM | [23] 14.5 µM | [24] 13.4 µM | [25] 12 µM | [27] 14.4 µM | [28] 14.9 µM | [29] 17.9 µM | [30] 11 µM | [31] 6.04 µM | [32] 3.98 µM | [33] 17.1 µM | [34] 12.2 µM | [35] 16.3 µM | [36] 15 µM | [37] 14.8 µM | [38] 16.4 µM | [39] 17.5 µM | [40] 3.13 µM | [41] 15.5 µM | [42] 16.3 µM | [43] 12.5 µM | [44] 13.4 µM | [45] 13.7 µM | [46] 18.3 µM | [47] 14.5 µM | [48] 14.2 µM | [49] 9.59 µM | [50] 13 µM | [51] 12.9 µM | [52] 15.7 µM | [53] 12.7 µM | [54] 14.8 µM | [55] 16.4 µM | [56] 11.9 µM | [57] 11.5 µM | [58] 11.7 µM | [59] 14.1 µM

S=C1N=C(Cl)/C(=C\c2ccccc2)N1
active: [51] 1.06 µM
> 100 µM: [26]
inactive: [1] > 100 µM | [2] > 100 µM | [3] > 100 µM | [4] > 100 µM | [5] > 100 µM | [6] > 100 µM | [7] > 100 µM | [8] > 100 µM | [9] > 100 µM | [10] > 100 µM | [11] > 100 µM | [12] > 100 µM | [13] > 100 µM | [14] > 100 µM | [15] > 100 µM | [16] > 100 µM | [17] > 100 µM | [18] > 100 µM | [19] > 100 µM | [20] > 100 µM | [21] > 100 µM | [22] > 100 µM | [23] > 100 µM | [24] > 100 µM | [25] > 31.6 µM | [27] > 100 µM | [28] > 100 µM | [29] > 100 µM | [30] > 100 µM | [31] > 100 µM | [32] > 100 µM | [33] > 100 µM | [34] > 100 µM | [35] > 100 µM | [36] > 100 µM | [37] > 100 µM | [38] > 100 µM | [39] > 100 µM | [40] > 100 µM | [41] > 100 µM | [42] > 100 µM | [43] > 100 µM | [44] > 87.7 µM | [45] > 100 µM | [46] > 100 µM | [47] > 100 µM | [48] > 100 µM | [49] > 100 µM | [50] > 100 µM | [52] > 100 µM | [53] > 83.6 µM | [54] > 100 µM | [55] > 100 µM | [56] > 100 µM | [57] > 100 µM | [58] > 83.6 µM | [59] > 100 µM
